Results: article PMC4550478, “Metronidazole-triazole conjugates: Activity against Clostridium difficile and parasites” (European Journal of Medicinal Chemistry, 2015)
Converted amounts (≈) assume the structure as drawn.

Legend:
[1] = test system: G. lamblia BRIS/87/HEPU/713 (713); design: method as in earlier work; details: MtzS, crude Mtz-triazoles (>85% purity), ref 15 (Miyamoto et al.); read-out: EC50 G. lamblia 713, Lit.; cited from earlier work
H. pylori 26695 = experiment: MIC agar dilution, H. pylori 26695; assay type: cell-based; details: Helicobacter pylori, MtzS, microaerobic
Method: (§1) All compounds were tested for activity against a set of anaerobic C. difficile bacteria (630 ATCC BAA-1382, NAP1/027 M7404, NAP1/027 ATCC BAA-1803, VPI10463 ATCC 43255, CD26A54_S and CD26A54_R) and representative ESKAPE pathogens S. aureus (MRSA ATCC 43300), E. coli (ATCC 25922), K. pneumoniae (ATCC 700603), A. baumannii (ATCC 19606) and P. aeruginosa (ATCC 27853) using a standard broth microdilution assay. Selected compounds were tested for activity against H. pylori strains (26695, and clinical isolates MtzS 13/25, MtzR 98/285 and MtzR 13/61) using agar plate dilution, and for antimicrobial activity against […] Gram-positive bacterial strains: Enterococcus faecalis (VanA clinical isolate), Enterococcus faecium (MDR VanA ATCC 51559), Streptococcus pneumoniae (MDR ATCC 700677), S. aureus (MRSA ATCC 43300, MRSA clinical isolate, MRSA/DRSA clinical isolate, GISA NARSA NRS 1, GISA NARSA NRS 17, VRSA NARSA VRS1, VRSA NARSA VRS4 and VRSA NARSA VRS10) using broth microdilution. C. difficile strains were grown at 37 °C in a COY anaerobic chamber (5% H2, 10% CO2, 85% N2). H. pylori strains were grown at 37 °C under a microaerobic atmosphere (5% O2, 10% CO2). All facultative anaerobic bacteria were grown at 37 °C with normal atmospheric oxygen levels. All experiments were performed in duplicate with metronidazole, vancomycin, linezolid or colistin as positive controls for relevant strains (see Table 1). Positive growth control of bacteria and DMSO as well as a negative control of only media were included for every plate. Full assay details are provided in the supplementary information.
(§2) Helicobacter pylori strains, with a range of resistance levels to metronidazole (256 µg/ml, 64 µg/ml, 24 µg/ml, 2 µg/ml, and 0.04 µg/ml), were selected and obtained from Helicobacter Research Laboratory, University of Western Australia. The resistance strength to metronidazole was recorded according to eTest (bioMérieux). H. pylori strain 26695 was used as the control. H. pylori was maintained on the non-selective Columbia blood agar plates (CBA) (Columbia agar base Oxoid) with 5% horse blood and incubated at 37 °C and 10% CO2 for 48 hrs. […] Each of the H. pylori strains were harvested, OD600 calibrated to 0.3, and spotted in triplicate on CBA pre-mixed with the compound. The lowest concentration of antibiotic showing no growth was read as the MIC. The experiment was performed in duplicate.

[2] = Cytotoxicity, resazurin, HepG2; assay type: cell-based; details: human
Method: (§3) Compounds were tested for cytotoxicity against mammalian HepG2 and HEK293 cell lines, as detailed in the supplementary information.
(§4) HEK293 and HepG2 cells were seeded as 3000 and 5000 cells per well in 384-well plates, respectively. Cells were cultured in DMEM with 1% FBS for 24 hours at 37 °C, 5% CO2. Then a dilution series of compounds was added into each well, with the highest concentration of 100 µM. […] After 24 hours incubation with the compounds, 5 µM resazurin were added into each well and incubated at 37 °C for 2 hours. As a negative control, 1% Triton X-100 was added into the culture media to lyse all the cells. The fluorescence intensity was read using Polarstar Omega with excitation/emission 560/590. The data was analysed by GraphPad Prism software. Results are presented as the average percentage of control ± SD using the following equation: Percentage of Growth = (FITEST – FINegative/FIUNTREATED –FINegative)*100.

[3] = test system: H. pylori clinical isolate 13/25; experiment: MIC agar dilution, H. pylori 13/25; assay type: cell-based; details: Helicobacter pylori, MtzS clinical isolate
Method: as §1, §2

[4] = test system: H. pylori clinical isolate 98/285; experiment: MIC agar dilution, H. pylori 98/285; assay type: cell-based; details: Helicobacter pylori, MtzR clinical isolate
Method: as §1, §2

[5] = test system: H. pylori clinical isolate 13/61; experiment: MIC agar dilution, H. pylori 13/61; assay type: cell-based; details: Helicobacter pylori, MtzR clinical isolate
Method: as §1, §2

[6] = test system: G. lamblia BRIS/83/HEPU/106 (106); design: method as in earlier work; details: MtzS, crude Mtz-triazoles (>85% purity), ref 15 (Miyamoto et al.); read-out: EC50 G. lamblia 106, Lit.; cited from earlier work
[7] = MIC broth microdilution, drug resistant Gram-positive panel; assay type: cell-based; details: all strains of the panel; read-out: MIC against panel of drug resistant Gram-positive strains
Method: as §1
MICs were determined by a two-fold serial broth micro dilution according to the recommendation of CLSI standards with an inoculum of 5 × 10^5 CFU/mL^4 The compounds along with standard antibiotics were serially diluted twofold across the wells of 96-well non-binding surface plates (NBS, Corning). Standards ranged from 64 to 0.03 μg/mL, and the compounds from 128 to 0.06 μg/mL with final volumes of 50 μL per well. Gram-positive and Gram-negative bacteria were cultured in Mueller Hinton broth (MHB) (Bacto laboratories, Cat. no. 211443) at 37 °C overnight. A sample of each culture was then diluted 40-fold in fresh MHB broth and incubated at 37 °C for 2-3 h. The resultant mid-log phase cultures were diluted to the final concentration of 5 × 10^5 CFU/mL, then 50 μL was added to each well of the compound containing 96-well plates. All the plates were covered and incubated at 37 °C for 24 h.

[8] = Cytotoxicity, resazurin, HEK293; assay type: cell-based; details: human
Method: as §3, §4

G. lamblia 713-M3 (713M) = test system: G. lamblia 713-M3 (713M); design: method as in earlier work; details: MtzR, crude Mtz-triazoles (>85% purity), ref 15 (Miyamoto et al.); read-out: EC50 G. lamblia 713M, Lit.; cited from earlier work

Compound	EC50 [1] [µM]	MIC (H. pylori 26695) [µg/mL]	MIC [3] [µg/mL]	MIC [4] [µg/mL]	MIC [5] [µg/mL]	EC50 [6] [µM]	EC50 (G. lamblia 713-M3 (713M)) [µM]	also measured
Cc1ncc([N+](=O)[O-])n1CCO [Compound 1, metronidazole]	2	8 (≈ 46.7 µM)	4 to 8 (≈ 23.4 to 46.7 µM)	64 (≈ 374 µM)	32 to 64 (≈ 187 to 374 µM)	3.6	50	CC50 at 24 h [2]: > 100 µM; MIC [7]: > 64 µg/mL; CC50 at 24 h [8]: > 100 µM
Cc1ncc([N+](=O)[O-])n1CCN=[N+]=[N-] [Compound 3, 1-(2-azidoethyl)-2-methyl-5-nitro-1H-imidazole]								CC50 at 24 h ([2]; no cytotoxicity up to 100 μM, 24 hours incubation, read-out: CC50 HepG2): > 100 µM; CC50 at 24 h ([8]; no cytotoxicity up to 100 μM, 24 hours incubation, read-out: CC50 HEK293): > 100 µM
Cc1ncc([N+](=O)[O-])n1CCn1cc(-c2ccccc2)nn1 [Compound 4a, 1-(2-(2-methyl-5-nitro-1H-imidazol-1-yl)ethyl)-4-phenyl-1H-1,2,3-triazole]	0.16					0.26	5.3	MIC [7]: > 64 µg/mL
Cc1ncc([N+](=O)[O-])n1CCn1cc(-c2ccc(Cl)c(Cl)c2)nn1 [Compound 4d, 1-(2-(2-methyl-5-nitro-1H-imidazol-1-yl)ethyl)-4-(3,4-dichlorophenyl)-1H-1,2,3-triazole]	0.31					1.4	0.57	
Cc1ccc(-c2cn(CCn3c([N+](=O)[O-])cnc3C)nn2)cc1 [Compound 4e, 1-(2-(2-methyl-5-nitro-1H-imidazol-1-yl)ethyl)-4-(p-tolyl)-1H-1,2,3-triazole]	0.53					2.1	8.1	
COC(=O)c1cn(CCn2c([N+](=O)[O-])cnc2C)nn1 [Compound 4f, 1-(2-(2-methyl-5-nitro-1H-imidazol-1-yl)ethyl)-4-(methoxycarbonyl)-1H-1,2,3-triazole]		32 to 64 (≈ 114 to 228 µM)	32 to 64 (≈ 114 to 228 µM)					
Cc1ncc([N+](=O)[O-])n1CCn1cc(Cn2cccn2)nn1 [Compound 4g, 1-(2-(2-methyl-5-nitro-1H-imidazol-1-yl)ethyl)-4-((1H-pyrazol-1-yl)methyl)-1H-1,2,3-triazole]		2 to 4 (≈ 6.62 to 13.2 µM)	2 (≈ 6.62 µM)	16 to 32 (≈ 52.9 to 106 µM)	16 to 32 (≈ 52.9 to 106 µM)			
Cc1ncc([N+](=O)[O-])n1CCn1cc(-c2ccccn2)nn1 [Compound 4h, 1-(2-(2-methyl-5-nitro-1H-imidazol-1-yl)ethyl)-4-(2-pyridinyl)-1H-1,2,3-triazole.xTFA]	0.35	2	1	32	16	0.56	14	
Cc1ncc([N+](=O)[O-])n1CCn1cc(Cc2ccccc2)nn1 [Compound 4k, 1-(2-(2-methyl-5-nitro-1H-imidazol-1-yl)ethyl)-4-benzyl-1H-1,2,3-triazole]	0.39					0.71	5.2	
Cc1ncc([N+](=O)[O-])n1CCn1cc(CN(C)Cc2ccccc2)nn1 [Compound 4m, 1-(2-(2-methyl-5-nitro-1H-imidazol-1-yl)ethyl)-4-(N-benzyl, N-methylaminomethyl)-1H-1,2,3-triazole]	0.91	4 (≈ 11.3 µM)	2 (≈ 5.63 µM)		16 (≈ 45 µM)	0.3	9.3	
Cc1ncc([N+](=O)[O-])n1CCn1cc(-c2ccsc2)nn1 [Compound 4n, 1-(2-(2-methyl-5-nitro-1H-imidazol-1-yl)ethyl)-4-(thiophen-3-yl)-1H-1,2,3-triazole]	0.23					0.34	6.9	
Cc1ncc([N+](=O)[O-])n1CCn1cc(CO)nn1 [Compound 4q, 1-(2-(2-methyl-5-nitro-1H-imidazol-1-yl)ethyl)-4-(hydroxymethyl)-1H-1,2,3-triazole]								MIC [7]: > 64 µg/mL
Cc1ncc([N+](=O)[O-])n1CCn1cc(C(=O)O)nn1 [Compound 4s, 1-(2-(2-methyl-5-nitro-1H-imidazol-1-yl)ethyl)-4-(carboxy)-1H-1,2,3-triazole]		> 64	> 64	> 64	> 64			
